Tested on: melanoma cells (D10)
Assay: Membrane turnover assay (FM1-43 uptake by FACS in CTL/target cell conjugates)
Type: cell-based, human
Conditions: D10 cells loaded with antigenic peptide, pretreated 2 h with 50 μM BAPTA-AM, alone or after 5 min conjugation with CTL; compared with untreated cells
Method: Loading of target cells: Target cells were left unpulsed or pulsed with 10 μM antigenic peptide during 2 h at 37° C./5% CO2. Cells were washed three times, re-suspended at 15×10^3 to 30×10^3 cells in 25 μl RPMI/5% FCS/HEPES and transferred to a 96-well U-bottom plate.
In some experiments, D10 cells were pretreated (2 h) or not with 50 μM BAPTA-AM (ThermoFisher Scientific).
CTL staining: CTL were stained with 10 μM CellTrace Violet (CTV, ThermoFisher Scientific) for 30 min at 37° C./5% CO2, washed three times and re-suspended at 30×10^3 to 60×10^3 cells per 25 μl RPMI/5% FCS/HEPES.
Conjugation of CTL and target cells: 25 μl of CTL (previously stained with CTV) were added in wells containing pulsed or unpulsed target cells at 2:1 CTL/target cell ratio. Target cells were previously added to three 96-U-bottom plates (one plate per time point: 2, 5 or 15 minutes). A pre-diluted solution of FM1-43 (ThermoFisher Scientific) was prepared at 20 μg/ml. 50 μl of this solution were added to wells containing in 50 μl the cells of interest to have a final concentration of 10 μg/ml. The FM1-43 solution was added to wells at the same time of CTL. Cells were pelleted during 1 minute at 455 g and incubated at 37° C./5% CO2 for 2, 5 or 15 minutes.
At the end of the incubation time, 100 μl cold FACS buffer (PBS 1% FBS 1% HS 0.1% azide) supplemented with 0.5 mM EDTA were added to each well on ice. […]

For `CC(=O)OCOC(=O)CN(CC(=O)OCOC(C)=O)c1ccccc1OCCOc1ccccc1N(CC(=O)OCOC(C)=O)CC(=O)OCOC(C)=O` [BAPTA-AM], the “FM1-43 uptake (fluorescence intensity) in melanoma cells” value was “decrease of FM1-43 uptake”.

Source: patent US20220018828A1, “METHODS AND KIT FOR ASSAYING LYTIC POTENTIAL OF IMMUNE EFFECTOR CELLS” (INSERM (INSTITUT NATIONAL DE LA SANTÉ ET LA RECHERCHE …, priority 2018, published 2022)
